From patent US11707539B2, “FAP-targeted radiopharmaceuticals and imaging agents, and uses related thereto” (Trustees of Tufts College, priority 2020, dated 2023)
“And” between values parts separate entries of the source, which are not always exact repeats. Equal entries are not always repeated. Where two headings read alike, the source gives them in different places. Each block holds one compound with its values, some of them ahead of it. Where a SMILES comes first, the peptide text is derived from it.

What was measured:
Type in all cases: biochemical
[1] = molecular target: recombinant human fibroblast activation protein (FAP) (Homo sapiens (Human), UniProt Q12884); experiment: In vitro IC50 assay, fibroblast activation protein (Example 15)
Method: (§1) The purpose of this assay is to determine the IC50 of various inhibitors against recombinant human dipeptidyl peptidase IV (DPPIV), fibroblast activation protein (FAP) or prolyl oligopeptidase (PREP).
(§2) The assays are conducted in the following steps: • 1 Dissolve the compound in DMSO to a final concentration of 100 mM. From this, prepare a 1 mM stock at pH 7.5 in 50 mM Tris, 140 mM NaCl Buffer (FAP)/pH 7.5 in 25 mM Tris, 250 mM NaCl Buffer/pH 8.0 140 mM NaCl Buffer (PREP). • 2. Serial dilute (1:10) the 1 mM compound stocks prepared previously into the appropriate assay buffer (FAP: 50 mM Tris, 140 mM NaCl, pH 7.5/PREP: 25 mM Tris, 0.25 M NaCl, pH 7.5/DPPIV: 25 mM Tris, pH 8.0) to one row of a 96-well plate. • 3. […] Dilute the enzymes into their appropriate assay buffers. The final enzyme concentrations should be 0.1, 1.2, and 0.6 nM for DPPIV, FAP and PREP respectively. Add 180 μL to each well needed in columns 2-10. Column 1 (A,B,C) should be prepared with 200 ul of appropriate assay buffer as control. Column 1 (D,E,F,G,H) should be prepared with 20 ul of appropriate assay buffer and 180 ul enzyme as no inhibitor control. • 5. Add 20 μL of the compound of interest from the dilution plate prepared in step 2 to columns 2-10 of the assay plate where appropriate. Each sample should be tested in triplicate. Allow this to incubate for 10 minutes at room temperature, shaking the plate for the first two minutes. • 6. Add 10 μL of 20× substrate prepared in step 3 to each well and allow this to incubate for 15 minutes at room temperature, shaking the plate for the first two minutes. • 7. Read the fluorescence at λex: 380, λem: 460. (DPcore=[dAla|dSerGly]-[boroPro|Pro-nitrile], XXaa=alpha-amino acid)

[2] = molecular target: recombinant human prolyl oligopeptidase (PREP) (Homo sapiens (Human), UniProt P48147); experiment: In vitro IC50 assay, prolyl oligopeptidase (Example 15)
Method: as §1, §2

[3] = molecular target: recombinant human dipeptidyl peptidase IV (DPPIV) (Homo sapiens (Human), UniProt P27487); experiment: In vitro IC50 assay, dipeptidyl peptidase IV (Example 15); conditions: Gly-Pro-AMC, room temperature
Method: as §1, §2

[4] = Z-Gly-Pro-AMC, room temperature, read-out: FAP IC50
[5] = Z-Gly-Pro-AMC, room temperature, read-out: PREP IC50

Sequence of recombinant human fibroblast activation protein (FAP) (Q12884 whole entry): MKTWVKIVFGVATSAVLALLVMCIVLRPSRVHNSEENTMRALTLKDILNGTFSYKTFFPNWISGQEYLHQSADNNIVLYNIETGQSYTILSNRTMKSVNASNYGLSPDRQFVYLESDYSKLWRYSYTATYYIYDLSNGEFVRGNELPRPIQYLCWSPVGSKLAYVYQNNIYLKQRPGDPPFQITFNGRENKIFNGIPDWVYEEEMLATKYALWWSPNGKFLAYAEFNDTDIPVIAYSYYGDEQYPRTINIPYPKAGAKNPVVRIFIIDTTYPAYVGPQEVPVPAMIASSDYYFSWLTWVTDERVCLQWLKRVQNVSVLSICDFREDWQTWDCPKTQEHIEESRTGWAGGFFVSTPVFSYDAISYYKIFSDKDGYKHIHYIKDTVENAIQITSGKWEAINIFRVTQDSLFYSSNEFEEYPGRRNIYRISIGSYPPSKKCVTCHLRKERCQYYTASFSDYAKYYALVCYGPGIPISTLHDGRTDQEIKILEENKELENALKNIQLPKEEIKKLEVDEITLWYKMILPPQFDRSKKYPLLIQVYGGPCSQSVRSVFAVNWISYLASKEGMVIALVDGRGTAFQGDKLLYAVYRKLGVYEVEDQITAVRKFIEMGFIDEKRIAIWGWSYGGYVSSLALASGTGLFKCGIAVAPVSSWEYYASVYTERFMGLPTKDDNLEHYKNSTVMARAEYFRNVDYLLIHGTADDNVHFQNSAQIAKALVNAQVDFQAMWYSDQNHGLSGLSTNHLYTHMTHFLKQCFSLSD
Sequence of recombinant human prolyl oligopeptidase (PREP) (P48147 whole entry): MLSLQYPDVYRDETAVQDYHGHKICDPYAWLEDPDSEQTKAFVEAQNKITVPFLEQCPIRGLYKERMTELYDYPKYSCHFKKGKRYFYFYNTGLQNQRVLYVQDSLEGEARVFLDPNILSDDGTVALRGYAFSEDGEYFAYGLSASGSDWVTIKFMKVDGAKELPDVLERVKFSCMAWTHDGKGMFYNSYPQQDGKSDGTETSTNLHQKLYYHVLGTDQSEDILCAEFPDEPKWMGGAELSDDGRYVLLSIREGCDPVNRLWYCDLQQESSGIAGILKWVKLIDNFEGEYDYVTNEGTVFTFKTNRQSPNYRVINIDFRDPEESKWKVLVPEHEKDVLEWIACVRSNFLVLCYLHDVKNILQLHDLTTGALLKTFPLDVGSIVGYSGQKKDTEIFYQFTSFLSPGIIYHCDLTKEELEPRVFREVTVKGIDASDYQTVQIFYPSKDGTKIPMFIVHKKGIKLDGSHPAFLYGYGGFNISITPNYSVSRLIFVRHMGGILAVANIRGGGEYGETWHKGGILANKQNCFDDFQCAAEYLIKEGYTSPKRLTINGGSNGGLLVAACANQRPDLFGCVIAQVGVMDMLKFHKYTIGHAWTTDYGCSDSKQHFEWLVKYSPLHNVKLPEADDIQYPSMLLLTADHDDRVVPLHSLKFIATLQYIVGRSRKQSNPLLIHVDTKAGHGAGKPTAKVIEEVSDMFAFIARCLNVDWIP
Sequence of recombinant human dipeptidyl peptidase IV (DPPIV) (P27487 whole entry): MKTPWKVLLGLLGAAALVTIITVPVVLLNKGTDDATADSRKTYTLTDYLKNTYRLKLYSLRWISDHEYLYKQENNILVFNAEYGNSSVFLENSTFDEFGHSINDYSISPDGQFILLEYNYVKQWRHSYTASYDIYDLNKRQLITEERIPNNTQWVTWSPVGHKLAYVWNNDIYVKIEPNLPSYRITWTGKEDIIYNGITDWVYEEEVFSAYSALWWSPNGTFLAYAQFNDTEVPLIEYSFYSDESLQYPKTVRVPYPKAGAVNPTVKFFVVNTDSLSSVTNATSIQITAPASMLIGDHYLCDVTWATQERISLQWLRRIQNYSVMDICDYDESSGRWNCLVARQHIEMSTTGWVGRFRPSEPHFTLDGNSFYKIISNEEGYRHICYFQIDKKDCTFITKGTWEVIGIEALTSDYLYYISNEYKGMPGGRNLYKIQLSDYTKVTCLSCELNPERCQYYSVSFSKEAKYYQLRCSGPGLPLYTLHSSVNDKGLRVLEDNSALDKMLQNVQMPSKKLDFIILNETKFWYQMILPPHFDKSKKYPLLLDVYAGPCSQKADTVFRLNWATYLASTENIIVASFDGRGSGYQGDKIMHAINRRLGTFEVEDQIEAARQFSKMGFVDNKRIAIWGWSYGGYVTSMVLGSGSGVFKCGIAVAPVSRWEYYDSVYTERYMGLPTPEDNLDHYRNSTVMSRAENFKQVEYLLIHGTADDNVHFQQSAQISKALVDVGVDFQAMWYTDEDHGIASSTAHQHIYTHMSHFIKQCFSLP

Compound: C[C@@H](NC(=O)c1ccc(NNC(=O)CCCNC(=O)CN2CCN3CCN4CCN(CC2)CC(=O)[O][Ga]([O]C(=O)C3)[O]C(=O)C4)cc1)C(=O)N1CCC[C@H]1B(O)O [Compound 6489GA]
IC50 [1, 4]: 0.039 µM
IC50 [2, 5]: 3.4 µM
IC50 [3]: > 100 µM

IC50 [2, 5]: 0.75 µM
Compound: C[C@@H](NC(=O)c1ccc(NNC(=O)CN2CCN(CC(=O)O)CCN(CC(=O)O)CCN(CC(=O)O)CC2)nc1)C(=O)N1CCC[C@H]1B(O)O [Compound 4536]

Compound: CC(C)[C@H](NC(=O)CNC(=O)CC[C@@H]1C(=O)[O][Lu]23[O]C(=O)CN4CCN(CCN1CCN(CC4)CC(=O)[O]2)CC(=O)[O]3)C(=O)N[C@H](C)C(=O)N1CCC[C@H]1B(O)O [Compound 6795DLU, (R)-DOTAGA(Lu)-Gly-Val-Dala-boroPro]
IC50 [3]: > 100 µM

Compound: CC(C)[C@H](NC(=O)CNC(=O)CNC(=O)CN1CCN2CCN3CCN(CC1)CC(=O)[O][Ga]([O]C(=O)C2)[O]C(=O)C3)C(=O)N[C@H](C)C(=O)N1CCC[C@H]1B(O)O [Compound 6522GA-02, DOTA(Ga)-Gly-Gly-Val-D-alaboroPro] (HELM PEPTIDE1{[O=C1CN2CCN3CCN(CC(=O)[*:2])CCN(CC2)CC(=O)[O][Ga]([O]1)[O]C(=O)C3].G.G.V.[dA].[OB(O)[C@@H]1CCCN1[*:1]]}$$$$V2.0)
IC50 [1, 4]: 0.575 µM
IC50 [2, 5]: 19 µM
IC50 [3]: > 100 µM

Compound: (R)-DOTAGA(Ga)-Gly-Val-Dala-boroPro [Compound 6795DGA]
IC50 [1, 4]: 0.31 µM
IC50 [2, 5]: 9.4 µM
IC50 [3]: > 100 µM

Compound: C[C@@H](NC(=O)c1ccc(NNC(=O)CCCCCNC(=O)CN2CCN3CCN4CCN(CC2)CC(=O)[O][Ga]([O]C(=O)C3)[O]C(=O)C4)cc1)C(=O)N1CCC[C@H]1B(O)O [Compound 6486GA]
IC50 [1, 4]: 0.081 µM
IC50 [2, 5]: 4.7 µM
IC50 [3]: > 100 µM

IC50 [1, 4]: 0.186 µM
Compound: C[C@@H](NC(=O)[C@H](CO)NC(=O)CN1CCN(CC(=O)O)CCN(CC(=O)O)CCN(CC(=O)O)CC1)C(=O)N1CCC[C@H]1B(O)O [Compound 6509, DOTA-Ser-D-Ala-boroPro]

Compound: C[C@@H](NC(=O)c1ccc(NNC(=O)CCCNC(=O)CN2CCN3CCN4CCN(CC2)CC(=O)[O][Lu]([O]C(=O)C3)[O]C(=O)C4)nc1)C(=O)N1CCC[C@H]1B(O)O [Compound 6609LU]
IC50 [1, 4]: 0.001 µM
IC50 [2, 5]: 0.06 µM

Compound: C[C@@H](NC(=O)c1ccc(NC(=O)CCCCNC(=O)CN2CCN3CCN4CCN(CC2)CC(=O)[O][Lu]([O]C(=O)C3)[O]C(=O)C4)cc1)C(=O)N1CCC[C@H]1B(O)O [Compound 6590LU]
IC50 [1, 4]: 0.0004 µM

Compound: CC(C)[C@H](NC(=O)CNC(=O)CNC(=O)CN1CCN(CC(=O)O)CCN(CC(=O)O)CCN(CC(=O)O)CC1)C(=O)N[C@H](C)C(=O)N1CCC[C@H]1B(O)O [Compound 6522L, DOTA-Gly-Gly-Val-alaboroPro(L-ala)] (HELM PEPTIDE1{[O=C(O)CN1CCN(CC(=O)O)CCN(CC(=O)[*:2])CCN(CC(=O)O)CC1].G.G.V.[dA].[OB(O)[C@@H]1CCCN1[*:1]]}$$$$V2.0)
IC50 [1]: > 100 µM
IC50 [2, 5]: 0.0076 µM
IC50 [3]: 3.4 µM

Compound: CC(C)[C@H](NC(=O)CNC(=O)CC[C@H]1C(=O)[O][Lu]23[O]C(=O)CN4CCN(CCN1CCN(CC4)CC(=O)[O]2)CC(=O)[O]3)C(=O)N[C@H](C)C(=O)N1CCC[C@H]1B(O)O [Compound 6795LLU, (S)-DOTAGA-Gly-Val-Dala-boroPro (6795L-Lu Complex)]
IC50 [1]: 0.0201 µM
IC50 [2]: 6.39 µM

Compound: CC(C)[C@H](NC(=O)CNC(=O)CNC(=O)CN1CCN(CC(=O)O)CCN(CC(=O)O)CCN(CC(=O)O)CC1)C(=O)N[C@H](C)C(=O)N1CCCC1B1OC(=O)CN(C)CC(=O)O1 (stereo partly drawn) [Compound 6522M, DOTA-Gly-Gly-Val-D-alaboroPro-MIDA] (HELM PEPTIDE1{[O=C(O)CN1CCN(CC(=O)O)CCN(CC(=O)[*:2])CCN(CC(=O)O)CC1].G.G.V.[dA].[CN1CC(=O)OB(C2CCCN2[*:1])OC(=O)C1]}$$$$V2.0)
IC50 [1, 4]: 0.28 µM

Compound: CC(C)[C@H](NC(=O)CNC(=O)CNC(=O)CNC(=O)CNC(=O)CN1CCN(CC(=O)O)CCN(CC(=O)O)CCN(CC(=O)O)CC1)C(=O)N[C@H](C)C(=O)N1CCC[C@H]1B(O)O [Compound 6839, DOTA-(Gly)4-Val-D-ala-boroPro] (HELM PEPTIDE1{[O=C(O)CN1CCN(CC(=O)O)CCN(CC(=O)[*:2])CCN(CC(=O)O)CC1].G.G.G.G.V.[dA].[OB(O)[C@@H]1CCCN1[*:1]]}$$$$V2.0)
IC50 [1, 4]: 0.021 µM

Compound: C[C@H](NC(=O)CN1CCN2CCN3CCN(CC1)CC(=O)[O][Gd]([O]C(=O)C2)[O]C(=O)C3)C(=O)N[C@H](C)C(=O)N1CCC[C@H]1B(O)O [Compound 6511Gd, DOTA[(Gd(III)]-Ala-D-Ala-boroPro]
IC50 [1, 4]: 0.428 µM

IC50 [3]: > 100 µM
Compound: C[C@@H](NC(=O)c1ccc(NN)nc1)C(=O)N1CCC[C@H]1B(O)O [Compound 3860, N-(6-hydrazinylnicotincarbonyl)-D-AlaboroPro]

Compound: C[C@@H](NC(=O)CN1CCN2CCN3CCN(CC1)CC(=O)[O][Gd]([O]C(=O)C2)[O]C(=O)C3)C(=O)N1CCC[C@H]1B(O)O [Compound 4535GD, DOTA[(Gd(III)]-D-alaboroPro]
IC50 [1, 4]: 0.76 µM
IC50 [2, 5]: > 10 µM

Compound: (R)-DOTAGA(Ga)-(Gly)3-Val-Dala-boroPro [Compound 6808DGA]
IC50 [1, 4]: 0.089 µM

Compound: C[C@@H](NC(=O)c1ccc(NNC(=O)CN2CCN3CCN4CCN(CC2)CC(=O)[O][Ga]([O]C(=O)C3)[O]C(=O)C4)cc1)C(=O)N1CCC[C@H]1B(O)O [Compound 5183GA]
IC50 [1, 4]: 0.0461 µM

Compound: C[C@@H](NC(=O)c1ccc(NNC(=O)CCCCCNC(=O)CN2CCN3CCN4CCN(CC2)CC(=O)[O][Lu]([O]C(=O)C3)[O]C(=O)C4)nc1)C(=O)N1CCC[C@H]1B(O)O [Compound 6958LU]
IC50 [1, 4]: 0.0011 µM
IC50 [2, 5]: 0.155 µM

Compound: C[C@@H](NC(=O)c1ccc(NNC(=O)CN2CCN3CCN4CCN(CC2)CC(=O)[O][Gd]([O]C(=O)C3)[O]C(=O)C4)nc1)C(=O)N1CCC[C@H]1B(O)O [Compound 4536GD]
IC50 [2, 5]: > 100 µM
IC50 [3]: > 100 µM

Compound: CC(C)[C@H](NC(=O)CNC(=O)CNC(=O)CN1CCN2CCN3CCN(CC1)CC(=O)[O][Lu]([O]C(=O)C2)[O]C(=O)C3)C(=O)N[C@H](C)C(=O)N1CCC[C@H]1B(O)O [Compound 6522LU, DOTA(Lu)-Gly-Gly-Val-D-ala-boroPro] (HELM PEPTIDE1{[O=C1CN2CCN3CCN(CC(=O)[*:2])CCN(CC2)CC(=O)[O][Lu]([O]1)[O]C(=O)C3].G.G.V.[dA].[OB(O)[C@@H]1CCCN1[*:1]]}$$$$V2.0)
IC50 [1, 4]: 0.026 µM
IC50 [2, 5]: 19 µM
IC50 [3]: > 100 µM

Compound: CC(C)[C@H](NC(=O)CNC(=O)CNC(=O)CNC(=O)CCC(C(=O)O)N1CCN(CC(=O)O)CCN(CC(=O)O)CCN(CC(=O)O)CC1)C(=O)N[C@H](C)C(=O)N1CCC[C@H]1B(O)O (mixture of isomers) [Compound 6808, (R/S)-DOTAGA-(Gly)3-Val-Dala-boroPro]
IC50 [1]: 0.0115 µM

Compound: CC(C)[C@H](NC(=O)CN1CCN2CCN(CC(=O)O)CCN(CC1)CC(=O)[O][Cu][O]C(=O)C2)C(=O)N[C@H](C)C(=O)N1CCC[C@H]1B(O)O (stereo in doubt) [Compound 6508CU, DOTA[(Cu(II)]-Val-D-Ala-boroPro]
IC50 [1, 4]: 0.0262 µM

IC50 [1, 4]: 0.0088 µM and 0.01 µM
IC50 [2, 5]: 0.39 µM
IC50 [3]: > 100 µM
Compound: C[C@@H](NC(=O)c1ccc(NNC(=O)CCCCCC2=C(/C=C/C3=C(Oc4ccc(S(=O)(=O)O)cc4)C(=C/C=C4/N(CCCCS(=O)(=O)O)c5ccc(S(=O)(=O)O)cc5C4(C)C)/CCC3)C(C)(C)c3cc(S(=O)(=O)O)ccc32)nc1)C(=O)N1CCC[C@H]1B(O)O [Compound 4613B, IRDye800CW-3860]

IC50 [3]: > 100 µM
Compound: CC(C)[C@H](NC(=O)CNC(=O)CC[C@H](C(=O)O)N1CCN(CC(=O)O)CCN(CC(=O)O)CCN(CC(=O)O)CC1)C(=O)N[C@H](C)C(=O)N1CCC[C@H]1B(O)O [Compound 6795D, (R)-DOTAGA-Gly-Val-D-ala-boroPro]

Compound: C[C@@H](NC(=O)CN1CCN(CC(=O)O)CCN(CC(=O)O)CCN(CC(=O)O)CC1)C(=O)N1CCC[C@H]1B(O)O [Compound 4535, DOTA-D-ala-boroPro]
IC50 [1]: 0.033 µM
IC50 [2]: 10 µM
IC50 [2, 5]: > 10 µM

IC50 [1, 4]: 0.0017 µM
IC50 [2, 5]: 0.61 µM
Compound: C[C@@H](NC(=O)c1ccc(NNC(=O)CCCCCC2=C(/C=C/C3=C(Oc4ccc(S(=O)(=O)O)cc4)C(=C/C=C4/N(CCCCS(=O)(=O)O)c5ccc(S(=O)(=O)O)cc5C4(C)C)/CCC3)C(C)(C)c3cc(S(=O)(=O)O)ccc32)cc1)C(=O)N1CCC[C@H]1B(O)O [Compound 4613C, IRDye 800CW-3860B]
